Legend:
[1] = system: Canine Cardiac Atrioventricular Node Function; test: Test of the Suppression of Canine Cardiac Atrioventricular Node Function; type: in vivo; settings: anesthetized male beagle dogs, 0.1 mg/kg intravenously, 1 hour after administration (compound A), 30 minutes (Verapamil), vs control group; for change in AH intervals in the His bundle electrocardiograms during high-frequent stimulation by pacing: pacing the right atrium at intervals of 400 msec and 300 msec
Text: Male beagle dogs were employed in this test. Under halothane anesthesia, an electrode catheter was inserted from the left femoral artery and the front end thereof was placed in the non-coronary cusp of His bundle to thereby record the His bundle electrocardiogram. A pacing catheter was inserted via a sheath introducer placed in the right femoral vein and the front end thereof was fixed to the inner wall of the right atrium. Electrodes for recording body surface electrocardiogram were attached to the four limbs and thus the second-lead electrocardiogram was recorded. A drug was administered via the sheath introducer placed in the left femoral vein.
Verapamil, which was used as a comparative compound, was intravenously administered in a dose of 0.1 mg/kg. A group to which a vehicle was administered was referred to as the control group.
After the stabilization period following the surgical operation, AH intervals in the His bundle electrocardiograms were measured in the sinus rhythm and during pacing the right atrium at intervals of 400 msec and 300 msec. […] In the case of the comparative drug Verapamil, the AH intervals in the His bundle electrocardiogram as described above were measured before the administration and 30 minutes after the administration. The effect of a compound was expressed in the change in the AH intervals in the individual His bundle electrocardiograms in the sinus rhythm and during pacing the right atrium at intervals of 400 msec and 300 msec from the value before the administration of the drug and the data were compared with the data of the control group (Student's t-test) at a significant level of 5%. The term “AH interval in His bundle electrocardiogram” means the period of time wherein an electrical excitation generated at the atrium passes the atrioventricular node and arrives at His bundle.

[2] = system: Anesthetized Swine Ventricular Rate; test: Test of Measurement of Anesthetized Swine Ventricular Rate; type: in vivo, pigs (Landrace/White F1)
Protocol: Male pigs (Landrace/White F1) were employed in this test. Under pentbarbital anesthesia, a thoracotomy was performed at the fourth right intercostal space and an electrode for electrical stimulation was attached to the right atrial surface thus exposed. Electrodes for recording body surface electrocardiogram were attached to the four limbs and thus the second-lead electrocardiogram was recorded. A catheter for drug administration was placed in the right femoral vein. Compound A was intravenously administered in a dose of 0.3 mg/kg. Atenolol, which was a β-blocker used as a comparative compound, was intravenously administered in a dose of 1 mg/kg. A group to which a vehicle was administered was referred to as the control group. A 50 Hz burst stimulation was applied to the right atrium via the electrode for electrical stimulation and the ventricular rate per minute was measured as R-waves in the body surface electrocardiogram. Thirty minutes after the administration of compound A or the comparative drug, a 50 Hz burst stimulation was applied again to the right atrium and then the R-waves per minute in the body surface electrocardiogram were measured.

Row | SMILES | change in AH intervals in the His bundle electrocardiograms during high-frequent stimulation by pacing [1] | change in AH interval in the His bundle electrocardiogram in the sinus rhythm [1] | change in ventricular rate (R waves per minute) during the 50 Hz burst stimulation ([2]; anesthetized male pigs, 0.3 mg/kg intravenously, 30 minutes after administration, 50 Hz burst stimulation of right atrium, vs control group) | efficacy relative to Atenolol in controlling the ventricular rate ([2]; anesthetized pigs, compound A 0.3 mg/kg vs Atenolol 1 mg/kg intravenously)
1 | COc1cc2c(cc1OC)CN(C(=O)[C@@H]1CCCN(CCNC(=O)c3ccc(F)cc3)C1)CC2 [compound A, (−)-N-{2-[(R)-3-(6,7-dimethoxy-1,2,3,4-tetrahydroisoquinoline-2-carbonyl)piperidino]ethyl}-4-fluorobenzamide monophosphate] | prolonged at a significant level of 1% | no effect | significantly decreases | stronger by thrice or more
2 | COc1cc2c(cc1OC)CC(=O)N(CCCN(C)C[C@H]1Cc3cc(OC)c(OC)cc31)CC2 [Ivabradine] | no significant difference at a significant level of 5% was observed | do not suppress the atrioventricular node function in the sinus rhythm |  | 
3 | COc1ccc(CCN(C)CCCC(C#N)(c2ccc(OC)c(OC)c2)C(C)C)cc1OC (centres unmarked) [Verapamil] | significantly prolonged | significantly prolonged |  | 

From US20090247572A1, “AGENT FOR TREATING ATRIAL FIBRILLATION” (priority 2005, published 2009)
